In patent US6506751B1, “Thiazolidinone compounds useful as chemokine inhibitors” (Millennium Pharmaceuticals, Inc., priority 1999, dated 2003):

Experiments:
CCR-5 receptor = target: T1, CCR-5 receptor (Homo sapiens, UniProt P51681); assay: 125I-gp120/sCD4/CCR-5 binding assay (CCR-5 receptor binding assay); conditions: for IC50: block of 125I-gp120 (HIV-1 JR-FL)/sCD4 binding to membranes from CCR-5/L 1.2 cells; for inhibition at 10 µM / % Inhib. @ 10 μM: 10 μM compound, 125I-gp120/sCD4 binding to membranes from CCR-5/L 1.2 cells; for inhibition at 10 µM: read-out: % Inhib. @ 10 μM
T1 construct: membranes prepared from CCR-5/L 1.2 cells; expressed in transfected cells; host or cells: L1.2 cells (CCR-5/L 1.2), membrane preparation
Protocol: The ^125I-gp120/sCD4/CCR-5 binding assay is carried out similarly as described in Wu et al., Nature, 1996;384:179-183. Briefly, the envelope gp120 protein derived from HIV-1 JR-FL (Trkola et al., Nature, 1996;384:184-186), a M-tropic strain, is iodinated using solid phase lactoperoxidase to a specific activity of 20 μCi/μg. For each binding reaction (in a final volume of 100 μL binding buffer [50 mM HEPES, pH 7.5, 1 mM CaCl2, 5 mM MgCl2, and 0.5% BSA]), 25 μL (2.5 μg) of membranes prepared from CCR-5/L 1.2 cells are mixed with 25 μL (3 nM) sCD4, followed by 25 μL (0.1 nM) radiolabeled gp120 in the presence or absence of 25 μL compound dissolved in DMSO (final concentration of DMSO 0.5%). The reactions are incubated at room temperature for 45 to 60 minutes and stopped by transferring the mixture to GFB filter plates, which are then washed 3 to 4 times with binding buffer containing 0.5 M NaCl. The plates are dried and MicroScint scintillation fluid is added before counting.

T1 sequence (P51681 whole entry): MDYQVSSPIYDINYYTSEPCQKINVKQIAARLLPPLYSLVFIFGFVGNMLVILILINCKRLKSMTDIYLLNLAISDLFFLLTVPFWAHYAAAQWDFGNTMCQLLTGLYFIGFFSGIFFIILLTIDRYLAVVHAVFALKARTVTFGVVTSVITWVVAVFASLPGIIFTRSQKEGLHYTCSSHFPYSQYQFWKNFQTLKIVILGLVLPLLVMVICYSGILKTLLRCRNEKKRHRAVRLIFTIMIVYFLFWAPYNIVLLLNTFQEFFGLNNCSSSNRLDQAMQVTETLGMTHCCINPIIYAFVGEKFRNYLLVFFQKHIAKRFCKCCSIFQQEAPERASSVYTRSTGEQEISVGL

| IC50 (CCR-5 receptor) | melting point | inhibition at 10 µM (CCR-5 receptor) | % Inhib. @ 10 μM (CCR-5 receptor) | SMILES |
| --- | --- | --- | --- | --- |
| 10800 nM | 149 to 150 °C |  |  | O=C1/C(=C\c2cccc(F)c2)SC(c2cccc(F)c2)N1CCCN1CCOCC1 (centres unmarked) [Compound 1, 5-(3-Fluorobenzylidene)-2-(3-fluorophenyl)-3-(3-morpholin-4-ylpropyl)-thiazolidin-4-one] |
| 250 nM | 137 to 139 °C |  |  | O=C1/C(=C\c2cccc(Cl)c2)SC(c2cccc(Cl)c2)N1CCCN1CCCCC1 (centres unmarked) [Compound 2, 5-(3-Chlorobenzylidene)-2-(3-chlorophenyl)-3-(3-piperidin-1-yl-propyl)-thiazolidin-4-one] |
| 1260 nM | 160 to 162 °C |  |  | O=C1/C(=C\c2cccc(F)c2)SC(c2cccc(F)c2)N1CCCN1CCC(N2CCCCC2)CC1 (centres unmarked) [Compound 6, 3-(3-[1,4′]Bipiperidinyl-1′-yl-propyl)-5-(3-fluorobenzylidene)-2-(3-fluorophenyl)-thiazolidin-4-one] |
| 460 nM | 90 to 91 °C |  |  | O=C1/C(=C\C2CCCCC2)SC(c2cccc(Cl)c2)N1CCCN1CCCCC1 (centres unmarked) [Compound 14, 2-(3-Chlorophenyl)-5-cyclohexylmethylene-3-(3-piperidin-1-yl-propyl)-thiazolidin-4-one] |
| 12700 nM | 41 to 43 °C |  |  | CCN(CC)CCSCCCN1C(=O)/C(=C\c2cccc(F)c2)SC1c1cccc(Cl)c1 (centres unmarked) [Compound 15, 2-(3-Chlorophenyl)-3-[3-(2-diethylaminoethylsulfanyl)propyl]-5-(3-fluorobenzylidene)-thiazolidin-4-one] |
| 3810 nM | 140 to 141 °C |  |  | O=C1CSC(c2cccc(Cl)c2)N1C1CCN(Cc2ccccc2)CC1 (centres unmarked) [Compound 16, 3-(1-Benzylpiperidin-4-yl)-2-(3-chlorophenyl)-thiazolidin-4-one] |
| 280 nM | 121 to 123 °C |  |  | O=C1/C(=C\c2cccc(F)c2)SC(c2cccc(Cl)c2)N1C1CCN(Cc2ccccc2)CC1 (centres unmarked) [Compound 19, 3-(1-Benzylpiperidin-4-yl)-2-(3-chlorophenyl)-5-(3-fluorobenzylidene)-thiazolidin-4-one] |
| 170 nM | 156 to 158 °C |  |  | O=C1/C(=C\c2ccco2)SC(c2cccc(Cl)c2)N1CCCN1CCCCC1 (centres unmarked) [Compound 20, 2-(3-Chlorophenyl)-5-(furan-2-ylmethylene)-3-(3-piperidin-1-yl-propyl)-thiazolidin-4-one] |
| 1990 nM | 142 to 143 °C |  |  | O=C1/C(=C\c2cccc(F)c2)SC(c2cccc(Cl)c2)N1CCCN1CCOCC1 (centres unmarked) [Compound 23, 2-(3-Chlorophenyl)-5-(3-fluorobenzylidene)-3-(3-morpholin-4-yl-propyl)-thiazolidin-4-one] |
|  |  | 57.7% |  | O=C1C(=Cc2cccc(Cl)c2)SC(c2cccc(C(F)(F)F)c2)N1CCCN1CCN(c2ncccn2)CC1 (centres unmarked) [Compound 45, 5-(3-Chloro-benzylidene)-3-[3-(4-pyrimidin-2-yl-piperazin-1-yl)-propyl]-2-(3-trifluoromethyl-phenyl)-thiazolidin-4-one] |
|  |  |  | 51.1% | O=C1C(=Cc2cccc(Cl)c2)SC(c2cccc(C(F)(F)F)c2)N1CCCN1CCN(C2CCCCC2)CC1 (centres unmarked) [Compound 46, 5-(3-Chloro-benzylidene)-3-[3-(4-cyclohexyl-piperazin-1-yl)-propyl]-2-(3-rifluoromethyl-phenyl)-thiazolidin-4-one] |
|  |  |  | 75.6% | O=C1C(=Cc2cccc(Cl)c2)SC(c2cccc(F)c2)N1CCCN1CCN(c2ccccn2)CC1 (centres unmarked) [Compound 47, 5-(3-Chloro-benzylidene)-2-(3-fluoro-phenyl)-3-[3-(4-pyridin-2-yl-piperazin-1-yl)-propyl]-thiazolidin-4-ne] |
|  |  | 84.7% |  | O=C1C(=Cc2cccc(Cl)c2)SC(c2cccc(F)c2)N1CCCN1CCN(c2ncccn2)CC1 (centres unmarked) [Compound 48, 5-(3-Chloro-benzylidene)-2-(3-fluoro-phenyl)-3-[3-(4-pyrimidin-2-yl-piperazin-1-yl)-propyl]-thiazolidin-4-one] |
|  |  |  | 54.0% | O=C1C(=Cc2cccc(Cl)c2)SC(c2cccc(F)c2)N1CCCN1CCN(C2CCCCC2)CC1 (centres unmarked) [Compound 49, 5-(3-Chloro-henzylidene)-3-[3-(4-cyclohexyl-piperazin-1-yl)-propyl]-2-(3-fluoro-phenyl)-thiazolidin-4-one] |
|  |  | 77.8% |  | O=C1C(=Cc2cccc(Cl)c2)SC(c2cccc(Cl)c2)N1CCCN1CCN(c2ccccn2)CC1 (centres unmarked) [Compound 50, 5-(3-Chloro-benzylidene)-2-(3-chloro-phenyl)-3-[3-(4-pyridin-2-yl-piperazin-1-yl)-propyl]-thiazolidin-4-one] |
|  |  | 84% |  | O=C1C(=Cc2cccc(Cl)c2)SC(c2cccc(Cl)c2)N1CCCN1CCN(c2ncccn2)CC1 (centres unmarked) [Compound 51, 5-(3-Chloro-benzylidene)-2-(3-chloro-phenyl)-3-[3-(4-pyrimidin-2-yl-piperazin-1-yl)-propyl]-thiazolidin-4-one] |
|  |  | 43.7% |  | O=C1C(=Cc2cccc(Cl)c2)SC(c2cccc(Cl)c2)N1CCCN1CCN(C2CCCCC2)CC1 (centres unmarked) [Compound 52, 5-(3-Chloro-benzylidene)-2-(3-chloro-phenyl)-3-[3-(4-cyclohexyl-piperazin-1-yl)-propyl]-thiazolidin-4-one] |
